Source: patent US8993542B2, “Methods of treating viral infections” (priority 2008, dated 2015)

Test system: HIV-1IIIB
Assay: TCID50 determination of drug-treated HIV-1IIIB
Format: cell-based
Parameters: TCID50, XTT Endpoint / TCID50, RT Endpoint / TCID50, P24 Endpoint: unit not given here
[1] = 500 nM, compound removal at 1 minute
[2] = 500 nM, compound removal at 15 minutes
[3] = 500 nM, compound removal at 30 minutes
[4] = 500 nM, compound removal at 60 minutes
[5] = 500 nM, compound removal at 120 minute
[6] = virus treated 15 minutes with 0.039 nM drug
[7] = virus treated 15 minutes with 0.125 nM drug
[8] = virus treated 15 minutes with 0.39 nM drug
[9] = virus treated 15 minutes with 1.25 nM drug
[10] = virus treated 15 minutes with 3.9 nM drug
[11] = virus treated 15 minutes with 12.5 nM drug
[12] = virus treated 15 minutes with 39.1 nM drug
[13] = virus treated 15 minutes with 125 nM drug

## CCCCCCCCCCCCCCCCOCCCOP(=O)(O)CO[C@H](C)Cn1cnc2c(N)ncnc21 [CMX157, Hexadecyloxypropyl-9-R-[2-(Phosphonomethoxy)Propyl]-Adenine]
[1]
  Fold Decrease From VC, P24 Endpoint: (8.0) Fold
  Fold Decrease From VC, RT Endpoint: (5.2) Fold
  Fold Decrease From VC, XTT Endpoint: (2.2) Fold
  TCID50, P24 Endpoint: 4529
  TCID50, RT Endpoint: 25588
  TCID50, XTT Endpoint: 2014
[2]
  Fold Decrease From VC, P24 Endpoint: (5.7) Fold
  Fold Decrease From VC, RT Endpoint: (3.6) Fold
  Fold Decrease From VC, XTT Endpoint: (4.0) Fold
  TCID50, P24 Endpoint: 6398
  TCID50, RT Endpoint: 18115
  TCID50, XTT Endpoint: 1132
[3]
  Fold Decrease From VC, P24 Endpoint: (2.0) Fold
  Fold Decrease From VC, RT Endpoint: (2.8) Fold
  Fold Decrease From VC, XTT Endpoint: (2.0) Fold
  TCID50, P24 Endpoint: 18115
  TCID50, RT Endpoint: 22805
  TCID50, XTT Endpoint: 2014
[4]
  Fold Decrease From VC, P24 Endpoint: (4.0) Fold
  Fold Decrease From VC, RT Endpoint: (3.4) Fold
  Fold Decrease From VC, XTT Endpoint: (2.5) Fold
  TCID50, P24 Endpoint: 9058
  TCID50, RT Endpoint: 25588
  TCID50, XTT Endpoint: 1600
[5]
  Fold Decrease From VC, P24 Endpoint: (5.7) Fold
  Fold Decrease From VC, RT Endpoint: (3.2) Fold
  Fold Decrease From VC, XTT Endpoint: (4.0) Fold
  TCID50, P24 Endpoint: 6398
  TCID50, RT Endpoint: 25588
  TCID50, XTT Endpoint: 1132
15 minutes incubation
  concentrations resulting in reduced infectivity: ≥ 3.9 nM
1000, 500, 250 or 125 nM, 2 hours
  reduction of viral replication: 2-4 fold
[6]
  Fold Decrease From VC, P24 Endpoint: (0) Fold
  Fold Decrease From VC, RT Endpoint: (1.0) Fold
  Fold Decrease From VC, XTT Endpoint: (1.1) Fold
  TCID50, P24 Endpoint: 36337
  TCID50, RT Endpoint: 157772
  TCID50, XTT Endpoint: 16145
[7]
  Fold Decrease From VC, P24 Endpoint: (0) Fold
  Fold Decrease From VC, RT Endpoint: (1.1) Fold
  Fold Decrease From VC, XTT Endpoint: (1.1) Fold
  TCID50, P24 Endpoint: 30411
  TCID50, RT Endpoint: 144887
  TCID50, XTT Endpoint: 16145
[8]
  Fold Decrease From VC, P24 Endpoint: (1.4) Fold
  Fold Decrease From VC, RT Endpoint: (1.6) Fold
  Fold Decrease From VC, XTT Endpoint: (1.4) Fold
  TCID50, P24 Endpoint: 21529
  TCID50, RT Endpoint: 102336
  TCID50, XTT Endpoint: 12795
[9]
  Fold Decrease From VC, P24 Endpoint: (0) Fold
  Fold Decrease From VC, RT Endpoint: (1.6) Fold
  Fold Decrease From VC, XTT Endpoint: (2.0) Fold
  TCID50, P24 Endpoint: 30411
  TCID50, RT Endpoint: 102336
  TCID50, XTT Endpoint: 9058
[10]
  Fold Decrease From VC, P24 Endpoint: (2.0) Fold
  Fold Decrease From VC, RT Endpoint: (1.6) Fold
  Fold Decrease From VC, XTT Endpoint: (4.0) Fold
  TCID50, P24 Endpoint: 15207
  TCID50, RT Endpoint: 102336
  TCID50, XTT Endpoint: 4529
[11]
  Fold Decrease From VC, P24 Endpoint: (5.6) Fold
  Fold Decrease From VC, RT Endpoint: (1.6) Fold
  Fold Decrease From VC, XTT Endpoint: (4.0) Fold
  TCID50, P24 Endpoint: 5383
  TCID50, RT Endpoint: 102336
  TCID50, XTT Endpoint: 4529
[12]
  Fold Decrease From VC, P24 Endpoint: (4.0) Fold
  Fold Decrease From VC, RT Endpoint: (2.5) Fold
  Fold Decrease From VC, XTT Endpoint: (3.6) Fold
  TCID50, P24 Endpoint: 7604
  TCID50, RT Endpoint: 64570
  TCID50, XTT Endpoint: 5082
[13]
  Fold Decrease From VC, P24 Endpoint: (4.0) Fold
  Fold Decrease From VC, RT Endpoint: (2.5) Fold
  Fold Decrease From VC, XTT Endpoint: (4.5) Fold
  TCID50, P24 Endpoint: 7604
  TCID50, RT Endpoint: 64570
